Experimental data reported in patent US5264347A, “Method for the determination of α-ketoisocaproate in biological samples using D-α-hydroxyisocaproic dehydrogenase from lactobacillus casei” (Kernforschungsanlage Juelich GmbH, priority 1988, dated 1993).

Assays:
[1] = tested on: hydroxy-acid dehydrogenase (enzyme solution) of L. casei ssp. rhamosus DSM 20 021; assay: Selection of a suitable enzyme: initial reaction rate with keto acid, NADH absorption at 340 nm; format: biochemical; conditions: 0.15 mM keto acid, 0.2 mM NADH, pH 7.0
Method: (§1) The species Lactobacillus casei is currently divided into five subgroups (subspecies). […] The three keto acids KIC, KMV and KIV were used in a concentration of 0.15 mM (final concentration in the assay).
(§2) For the assay mixture, the microorganisms which had been cultured under customary conditions were harvested, the cells were disrupted by mechanical action, and the supernatant obtained by centrifugation was used as "enzyme solution" for the assay.
(§3) The assay mixture contained:
(§4) 0.1M potassium phosphate buffer, pH 7.0;
(§5) 0.020 ml of enzyme solution (0.1-0.2 mg of protein);
(§6) The initial reaction rate was determined by measuring the absorption at 340 nm as a function of time. (The reaction rate is reported in international units (IU)/min.) The results obtained are summarized below.

[2] = tested on: hydroxy-acid dehydrogenase (enzyme solution) of L. case ssp. alactosus DSM 20 020; assay: as above; format: biochemical; conditions: 0.15 mM keto acid, 0.2 mM NADH, pH 7.0
Method: as §1, §2, §3, §4, §5, §6

[3] = tested on: hydroxy-acid dehydrogenase (enzyme solution) of L. casei ssp. tolerans DSM 20 258; assay: as above; format: biochemical; conditions: 0.15 mM keto acid, 0.2 mM NADH, pH 7.0
Method: as §1, §2, §3, §4, §5, §6

[4] = molecular target: T1, hydroxy-acid dehydrogenase (enzyme solution) of L. casei ssp. casei DSM 20 011 (Lacticaseibacillus casei, UniProt A0AAN1C5W2); assay: as above; format: biochemical, Lactobacillus casei ssp. casei; conditions: 0.15 mM keto acid, 0.2 mM NADH, pH 7.0
T1 sequence (A0AAN1C5W2 1-333): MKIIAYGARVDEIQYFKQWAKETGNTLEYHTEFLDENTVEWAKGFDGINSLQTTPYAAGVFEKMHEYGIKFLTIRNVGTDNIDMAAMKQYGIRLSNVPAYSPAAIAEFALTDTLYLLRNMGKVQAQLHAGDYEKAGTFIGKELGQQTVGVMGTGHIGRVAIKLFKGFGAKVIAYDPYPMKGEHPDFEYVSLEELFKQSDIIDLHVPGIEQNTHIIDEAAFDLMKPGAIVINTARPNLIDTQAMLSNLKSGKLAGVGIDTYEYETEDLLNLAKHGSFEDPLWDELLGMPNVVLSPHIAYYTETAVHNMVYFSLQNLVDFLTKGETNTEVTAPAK
Method: as §1, §2, §3, §4, §5, §6

[5] = tested on: hydroxy-acid dehydrogenase (enzyme solution) of L. curvatus DSM 20 019; assay: as above; format: biochemical; conditions: 0.15 mM keto acid, 0.2 mM NADH, pH 7.0
Method: (§7) The species Lactobacillus casei is currently divided into five subgroups (subspecies). […] The three keto acids KIC, KMV and KIV were used in a concentration of 0.15 mM (final concentration in the assay). […] For the assay mixture, the microorganisms which had been cultured under customary conditions were harvested, the cells were disrupted by mechanical action, and the supernatant obtained by centrifugation was used as "enzyme solution" for the assay. Besides the various Lactobacillus casei strains, other Lactobacillus strains were also investigated; two typical representatives are listed in a table below. The assay mixture contained: 0.1M potassium phosphate buffer, pH 7.0; 0.2 mM NADH; 0.020 ml of enzyme solution (0.1-0.2 mg of protein); 0.15 mM keto acid (as shown in the table). The initial reaction rate was determined by measuring the absorption at 340 nm as a function of time. (The reaction rate is reported in international units (IU)/min.) The results obtained are summarized below.

[6] = molecular target: T2, hydroxy-acid dehydrogenase (enzyme solution) of L. confusus DSM 20 196 (Weissella confusa, UniProt P14295); assay: as above; format: biochemical; conditions: 0.15 mM keto acid, 0.2 mM NADH, pH 7.0
T2 sequence (P14295 1-310): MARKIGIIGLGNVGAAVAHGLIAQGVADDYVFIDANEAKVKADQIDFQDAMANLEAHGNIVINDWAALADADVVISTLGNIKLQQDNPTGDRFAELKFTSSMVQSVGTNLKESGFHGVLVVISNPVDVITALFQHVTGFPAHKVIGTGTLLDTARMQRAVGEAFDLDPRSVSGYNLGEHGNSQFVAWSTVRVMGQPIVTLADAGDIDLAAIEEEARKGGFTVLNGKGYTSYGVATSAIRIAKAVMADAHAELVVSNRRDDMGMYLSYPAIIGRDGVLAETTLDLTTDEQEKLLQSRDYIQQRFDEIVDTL
Method: as §7

[7] = molecular target: T3, hydroxy-acid dehydrogenase (enzyme solution) of L. casei ssp. pseudoplantarum DSM 20 008 (Lacticaseibacillus paracasei, UniProt P17584); assay: as above; format: biochemical, Lactobacillus casei ssp. pseudoplantarum; conditions: 0.15 mM keto acid, 0.2 mM NADH, pH 7.0
T3 construct: the cells were disrupted by mechanical action, and the supernatant obtained by centrifugation was used as; endogenous in cells; host or cells: Lactobacillus casei ssp. pseudoplantarum DSM 20008, cell-free supernatant
T3 sequence (P17584 1-333): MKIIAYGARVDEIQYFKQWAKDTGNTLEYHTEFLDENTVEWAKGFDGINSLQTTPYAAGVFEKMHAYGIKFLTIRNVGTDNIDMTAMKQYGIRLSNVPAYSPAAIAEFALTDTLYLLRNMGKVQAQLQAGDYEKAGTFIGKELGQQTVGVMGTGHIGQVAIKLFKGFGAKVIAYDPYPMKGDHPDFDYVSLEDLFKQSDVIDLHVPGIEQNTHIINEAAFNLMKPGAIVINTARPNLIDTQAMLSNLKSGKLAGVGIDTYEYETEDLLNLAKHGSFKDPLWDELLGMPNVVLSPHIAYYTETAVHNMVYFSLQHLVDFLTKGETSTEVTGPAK
Method: as §1, §2, §3, §4, §5, §6

[8] = molecular target: T4, hydroxy-acid dehydrogenase (enzyme solution) of L. casei ssp. pseudoplantarum DSM 20 207 (Lacticaseibacillus paracasei, UniProt P17584); assay: as above; format: biochemical, Lactobacillus casei ssp. pseudoplantarum; conditions: 0.15 mM keto acid, 0.2 mM NADH, pH 7.0
T4 sequence (P17584 1-333): T3 sequence (P17584 1-333)
Method: as §1, §2, §3, §4, §5, §6

[9] = molecular target: T5, D-α-hydroxyisocaproic dehydrogenase from Lactobacillus casei ssp. pseudoplantarum (DSM 20008) (Lacticaseibacillus paracasei, UniProt P17584); assay: Enzymatic selectivity for KIC: initial reaction rates versus keto acid concentration (FIG. 1); format: biochemical; conditions: change per minute in absorption at 340 nm versus keto-acid concentration, NADH present
T5 construct: D-α-hydroxyisocaproic dehydrogenase from Lactobacillus casei ssp. pseudoplantarum (DSM 20008); endogenous in cells; host or cells: Lactobacillus casei ssp. pseudoplantarum DSM 20008 (enzyme isolated from the strain's own cells)
T5 sequence (P17584 1-333): T3 sequence (P17584 1-333)
Description: This selectivity is illustrated in FIG. 1, which plots a measure of reaction rate (change per minute in absorption at 340 nm), in the presence of NADH and a Lactobacillus casei D-α-hydroxyisocaproicdehydrogenase, versus keto-acid concentration for KIC, KMV and KIV, respectively. In FIG. 1, .largecircle.--.largecircle. represents ketoisocaproate, O O represents ketomethylvalerate and .quadrature.----.quadrature. represents ketoisovalerate, respectively.
This entailed use of standard solutions of the three keto acids, each of known concentration (0.2 to 15 ωg/ml of assay mixture).
as §3, §4
stepped concentrations of keto acids.
The initial reaction rates (ΔA340 /min) were measured at 340 nm. […] This difference would be sufficient for a selective determination of KIC, for example, in serum.

Compound: CCC(C)C(=O)C(=O)O (stereo not drawn) [KMV, ketomethylvalerate]
- initial reaction rate [1]: 0 IU/min
- initial reaction rate [2]: 0 IU/min
- initial reaction rate [3]: 0 IU/min
- initial reaction rate [4]: 0 IU/min
- initial reaction rate [5]: 1.40 IU/min
- initial reaction rate [6]: 0.90 IU/min
- initial reaction rate [7]: 0.12 IU/min
- initial reaction rate [8]: 0 IU/min
- enzymatic conversion relative to the conversion of KIC (FIG. 1) [9]: can be ignored
